The values below come from patent US20060120980A1, “Novel dermatological composition using bio-activating organocatalysts” (priority 2004, published 2006).

Data set [1] can be described thus: appearance of the final solution (Cosmetics, formulary consideration). Type of data set: physicochemical. To be noted: appearance of final solution after reaction with Cu. From the text:
In certain aspects of the present invention, the catalyst system using transition metals (Cu or Fe) as trace catalytic metals, may require the presence of an optional redox agent (antioxidant) so as to produce H2O2. In order to form hydrogen peroxide, for example, it is necessary for the redox agent to reduce Cu^++ to Cu^+. […] In expanding the number of antioxidants, the following table was assembled after experimentation, based upon reactivity with Cu, the ability to reduce CoQ10 to H2CoQ10 and the appearance of the final solution (formulary consideration).

The test system of data set [2] is papilla-corium layer of skin. Nature of the data set: bioreactive skin test (pin-head like projections, activation of the papilla-corium layer). It is filed as in vivo. On the set-up: key: * = slight bioreactivity; *** = gross bioreactivity.
Source text: In this assay, compounds are applied to the dermis of an animal and potentially bio-reactive compounds (i.e., those which might function as bio-activating organocatalysts) produce a multiplicity of very small, pin-head like projections on the epidermis produced by activation of the papilla-corium layer. […] The bioreactivity of the formula can be judged by the intensity and time of the reaction.
The formula according to the present invention which are bioreactive in a skin test show a multiplicity of very small, pin-head like projections on the epidermis produced by activation of the papilla-corium layer. […] The activation ensues for about 2-4 hours and is from slight to gross depending on the formulation and returns to the normal skin landscape. The bioreactivity of the formula can be judged by the intensity and time of the reaction.
Essentially, the skin cream formulations containing organocatalyst are tested on skin. Those compositions which are bioreactive in the skin test show a multiplicity of very small, pin-head like projections on the epidermis produced by activation of the papilla-corium layer. The activation continues for about 2-4 hours and is from slight to gross depending on the formulation and returns to the normal skin landscape. The bioreactivity of the formula can be judged by the intensity and time of the reaction.
For data set [3] the following is noted: metal chelate; cited from earlier work.
The nature of data set [4]: solubility of organocatalyst in Eucerin skin cream (table comment). Type of data set: physicochemical. To be noted: 20 % by weight in Eucerin skin cream. The protocol: In order to test the relative bioreactivity of organocatalysts according to the present invention, a number of potential organocatalysts were formulated into a skin cream using Eucerin™ at concentrations ranging from 2% to 25% by weight of the final skin cream formulation. These skin creams were formulated by dissolving the organocatalyst at a desired amount into the Eucerin. The formulated compositions were then tested for skin bioreactivity according to the method previously described hereinabove.

Setting [5] is: Table 1A, 2 % by weight in Eucerin skin cream.
Where [6] appears, read: Table 1A, 20 % by weight in Eucerin skin cream.
Where [7] appears, read: Table 1A, 25 % by weight in Eucerin skin cream.

As for `CC(=O)N[C@@H](CS)C(=O)O` [N-acetyl cysteine], in data set [1], the Cosmetics entry is on record as “clear solution”. In the case of `O=C1NCC(C(=O)O)N1` (stereo not shown) [2-imidazolidone-4-carboxylic acid], the Bioreactivity result was “*” in data set [2] (Table 1, 2 % by weight); “***” in data set [2] (Table 1, 20 % by weight); “*” in data set [2] (setting [5]); “***” in data set [2] (setting [6]). As for `O=C(O)[C@@H]1CC(O)CN1` (stereo partly shown) [1-4-hydroxyproline], the Bioreactivity result in data set [2] (Table 1, 2 % by weight) is on record as “*”; in data set [2] (Table 1, 25 % by weight) it was “***”; in data set [2] (setting [5]), “*”; in data set [2] (setting [7]) it was “***”. For `N[C@@H](CS)C(=O)O` [Cysteine], the Cosmetics result in data set [1] is “clear solution”.

Copper lacate: the “Affinity Constant” value in data set [3] is 10^10-10^12. As for `O=C(O)c1ccccc1O.[Fe+3]` [Ferric salicylic acid], the “Affinity Constant” value in data set [3] is 10^16. As to `C=C[C@H]1CN2CC[C@H]1C[C@H]2[C@H](O)c1ccnc2ccc(OC)cc12.O=S(=O)(O)O` [quinine hydrosulfate, reference compound], the Bioreactivity result in data set [2] (Table 1, 2 % by weight) was “*”; in data set [2] (setting [5]) it was “*”.

Take `CC(O)C(=O)[O-].CC(O)C(=O)[O-].[Fe+2]` (stereo not shown) [Ferrous lactate]: the “Affinity Constant” value in data set [3] was 10^12. As to Copper gluconate, in data set [3], the “Affinity Constant” value was 10^6. Consider `CC(C)(C)OC(=O)[C@@H]1CCCN1` [1-proline-t-butyl ester], for which the Bioreactivity entry in data set [2] (Table 1, 20 % by weight) is listed as “***”; in data set [2] (setting [6]) it was “***”. Turning to `CC(O)CO` (stereo not shown) [propylene glycol, reference compound], the Bioreactivity result in data set [2] (setting [7]) is reported as “no reactivity”.

As for `O=C([O-])CN(CCN(CC(=O)[O-])CC(=O)O)CC(=O)O.[Cu+2]` [Copper EDTA], the “Affinity Constant” value in data set [3] is 10^23. On to `O=C([O-])C(O)C(O)C(=O)[O-].[Na+].[Na+]` (stereo not shown) [disodium tartrate, reference compound], for which, in data set [2] (setting [6]), the Bioreactivity entry was “no reactivity”. On to `Oc1ccccc1O.[Fe+3]` [Ferric catechol], for which, in data set [3], the “Affinity Constant” value is listed as 10^20.

Turning to `CCCOC(=O)c1cc(O)c(O)c(O)c1` [Propyl gallate], the Cosmetics entry in data set [1] is reported as “ugly brown ppt”.

As to `O=C(O)C1CCCN1` (stereo not shown) [d,1-proline], the Bioreactivity entry in data set [2] (in vivo) is listed as “***”. As to Vitamin E, the Cosmetics result in data set [1] is reported as “ugly brown ppt”.

As to `CC(=O)N(O)CCCCCNC(=O)CCC(=O)N(O)CCCCCNC(=O)CCC(=O)N(O)CCCCCN` [Desferrioxamine], the “Affinity Constant” value in data set [3] is reported as 10^30. With `N[C@@H](Cc1c[nH]cn1)C(=O)O.[Fe+2]` [Ferrous histidine], the “Affinity Constant” value in data set [3] is 10^16. Take `O=C(O)CO` [Glycolic acid]: in data set [3], the “Affinity Constant” value is 10^5.

Take `N[C@@H](Cc1ccccc1)C(=O)O` [1-phenylalanine]: the Bioreactivity result in data set [2] (Table 1, 20 % by weight) is “*”; in data set [2] (setting [6]), “*”. In addition, in data set [4], the “Comment (solubility)” value is given as “low solubility”. Consider `C=C[C@H]1C[N@@]2CC[C@H]1C[C@@H]2[C@@H](O)c1ccnc2ccc(OC)cc12` [quinidine, reference compound], for which the Bioreactivity result is on record as “*” in data set [2] (Table 1, 2 % by weight) and “*” in data set [2] (setting [5]). For the compound `O=C(O)[C@@H]1CCCN1` [1-proline], the Bioreactivity entry in data set [2] (in vivo) is “*** and *”. For Copper tripeptide (GHG), in data set [3], the “Affinity Constant” value is 10^16. Regarding `N[C@@H](CCC(=O)N[C@@H](CS)C(=O)NCC(=O)O)C(=O)O` [Glutathione], the Cosmetics entry in data set [1] was “clear solution”.

Regarding `O=C(O)CCCC[C@@H]1CCSS1` (racemic) [Lipoic Acid], the Cosmetics entry in data set [1] is on record as “clear solution”. Still for that read-out and setting: the value for `O=C(O)/C=C/c1ccc(O)c(O)c1` [Caffeic acid] was “dark brown ppt”. For `O=C([O-])CN(CCN(CC(=O)[O-])CC(=O)O)CC(=O)[O-].[Fe+3]` [Ferric EDTA], the “Affinity Constant” value in data set [3] was 10^25. `O=c1[nH]c(=O)c2[nH]c(=O)[nH]c2[nH]1` [Uric acid]: the Cosmetics result in data set [1] is “slightly colored ppt”. Take `O=C([O-])CN(CCN(CC(=O)[O-])CC(=O)[O-])CC(=O)[O-].[Fe+2].[H+].[H+]` [Ferrous EDTA]: the “Affinity Constant” value in data set [3] is on record as 10^25. As to `N[C@@H](Cc1c[nH]cn1)C(=O)O.[Cu]` [Copper histidine], the “Affinity Constant” value in data set [3] was 10^16. `CC(=O)N1CCC[C@H]1C(=O)O` [N-acetyl-1-proline]: the Bioreactivity result in data set [2] (Table 1, 20 % by weight) is “*”; in data set [2] (setting [6]), “*”. The “Comment (solubility)” value in data set [4] was “low solubility”.

For the compound `O=C(O)c1cc(O)c(O)c(O)c1` [Gallic acid], in data set [1], the Cosmetics result was “ugly brown ppt”.
